Earlier results in patent publication US20090023692A1, “COMPOSITIONS FOR INHIBITING AND PREVENTING VASCULAR OCCLUSION CONTAINING NUTRITIONAL SUPPLEMENTS” (NeursoSci, Inc., priority 2005, published 2009).

Settings: daily administration of low doses (approximately 80-100 mg), patients at risk for cardiovascular events

In the case of `CC(=O)Oc1ccccc1C(=O)O` [aspirin, acetylsalicylic acid], the “reduction of second heart attacks, strokes, and cardiovascular deaths” value is listed as “at least 25%”.
